From US12447149B2, “Formulations of vimseltinib” (Deciphera Pharmaceuticals, LLC, priority 2023, dated 2025)

How the values were obtained:
Format in all cases: physicochemical
[1] = Hydration of crystalline anhydrous form in low water activity solvents (XRPD); details: Ambient
Description: The hydration of the crystalline anhydrous form was studied using aqueous solvent systems with low water activity of 0.1. Slurries of the crystalline anhydrous form in the respective solvent were agitated for 6 days at room temperature. Aliquots of isolated materials were analyzed after 24, 48, and 144 hours of agitation. Table 12 summarizes the experiment conditions and isolated crystalline forms, as determined by XRPD.

[2] = Static storage stability of crystalline dihydrate and anhydrous forms (XRPD, DSC, KF weekly for four weeks)
Description: The stability of crystalline dihydrate and anhydrous forms of the compound represented by Formula (I) at varying relative humidity (RH) and temperature was investigated.
For example, the stability of crystalline dihydrate and anhydrous forms of the compound represented by Formula (I), as prepared according to Example 1 and Example 2, respectively, was studied under other conditions by placing aliquots of each form in static storage at conditions of 40° C./75% RH, 25° C./97% RH, 40° C./0% RH and 25° C./0% RH and analyzing the aliquots once weekly for four weeks using XRPD, DSC, and KF.

[3] = Hydration experiment: slurry of crystalline anhydrous form in deionized water, heat-cool cycles; details: 4-hour heat-cool cycles between 40° C. and room temperature for 72 hours
Description: In a hydration experiment, a slurry of the crystalline anhydrous form of the compound represented by Formula (I) and deionized water was subjected to successive 4-hour heat-cool cycles between 40° C. and room temperature for 72 hours.

[4] = Particle size distribution (PSD) of crystalline dihydrate form and seeds, DMAC-water crystallization; details: for particle size d10 of seeds / particle size d50 of seeds / particle size d90 of seeds: seeds used in DMAC-water crystallization
[5] = Particle size analysis by laser diffraction (Malvern Mastersizer 3000, wet dispersion); details: volume distribution
Description: Particle size analysis of dihydrate vimseltinib drug substance samples was determined by laser diffraction using a Malvern Mastersizer 3000 instrument in a wet dispersion mode.
Prior to analysis, dihydrate drug substance samples were rotated and inverted in the sample container at least 10 times to ensure homogeneity. Between 20 and 25 mg of sample was weighed into a Malvern Glass tube. 20 mL of the Dispersant Solution (0.1% Span 85 in Isoparaffin G) was added and vortexed until a homogeneous suspension was obtained (˜30 s). The sample was then placed in a Vibra-Cell ultrasonic processor. The amplitude was set to the target of 30% (4 Watts) using an external probe (Vibra-Cell) during 90 sec.
After background measurement, the sample dispersion was slowly added to the dispersion unit of the instrument to achieve an obscuration level target of 5%. The sample was stirred at 3250 rpm for at least 1 minute to ensure dispersion and stabilization of the sample. After stabilization, the measurement was started and performed using a Malvern Mastersizer 3000 according to the method conditions provided in Table 17.

[6] = milled seeds of crystalline dihydrate form used in DMAC-water crystallization, listed as 3
[7] = jet-milled seed batch, crystallization 1 at 60° C. with 7% seeds, crystallization 2 at 64° C. with 5% seeds
[8] = storage 25° C./0% RH, Week 4, listed as crystalline dihydrate form (having average crystal sizes of about 1 mm)
[9] = storage 40° C./0% RH, Week 4, listed as crystalline dihydrate form (having average crystal sizes of about 1 mm)
[10] = milled seeds of crystalline dihydrate form used in DMAC-water crystallization, listed as 2
[11] = milled seeds of crystalline dihydrate form used in DMAC-water crystallization, listed as 1
[12] = listed as seeds of a smaller size
[13] = crystallization outputs using seeds of a smaller size (about 1/3/5 μm)
[14] = crystallized with milled seeds of about 3/6/12 μm, seeding about 65° C., about 3% seeds, laboratory and production scale

## Cc1nc(-c2cnc(NC(C)C)n(C)c2=O)ccc1Oc1ccnc(-c2cnn(C)c2)c1 [crystalline anhydrous form]
[1]; Acetone/water (99:1), 24 h
  Observed Forms: Anhydrous
[1]; Acetone/water (99:1), 144 h
  Observed Forms: Anhydrous
[1]; MEK/water (99:1), 24 h
  Observed Forms: Anhydrous
[1]; MEK/water (99:1), 144 h
  Observed Forms: Dihydrate
[2]; all storage conditions (40° C./75% RH, 25° C./97% RH, 40° C./0% RH, 25° C./0% RH), after 4 weeks
  stability of the solid form on storage: remained stable
[3]
  isolated solid form by XRPD: crystalline dihydrate form

## Cc1nc(-c2cnc(NC(C)C)n(C)c2=O)ccc1Oc1ccnc(-c2cnn(C)c2)c1.O.O [Lot 3]
[4]; [6]
  Particle Size d10: 3 microns
  Particle Size d50: 6 microns
  Particle Size d90: 12 microns
[5]; listed as 3
  D(10): 6 μm
  D(50): 17 μm
  D(90): 33 μm

## Cc1nc(-c2cnc(NC(C)C)n(C)c2=O)ccc1Oc1ccnc(-c2cnn(C)c2)c1.O.O [Lot 4]
[5]; listed as 4
  D(10): 7 μm
  D(50): 19 μm
  D(90): 36 μm

## Cc1nc(-c2cnc(NC(C)C)n(C)c2=O)ccc1Oc1ccnc(-c2cnn(C)c2)c1.O.O [Crystalline dihydrate form of the compound represented by Fo] [listing 1 of 2 here]
[4]; [7]
  Particle Size d10: 3.6 microns
  Particle Size d50: 8.4 microns
  Particle Size d90: 16.2 microns

## Cc1nc(-c2cnc(NC(C)C)n(C)c2=O)ccc1Oc1ccnc(-c2cnn(C)c2)c1.O.O [Dihydrate form of the compound represented by Formula (I) (h] [listing 1 of 2 here]
[2]; storage 25° C./0% RH, Week 1
  KF (%): 7.7%
  XRPD: Dihydrate
[2]; storage 25° C./0% RH, Week 2
  KF (%): 7.6%
  XRPD: Dihydrate
[2]; storage 25° C./0% RH, Week 3
  KF (%): 7.2%
  XRPD: Dihydrate
[2]; storage 25° C./0% RH, Week 4
  KF (%): 5.8%
[2]; [8]
  KF (%): 5.8%
  XRPD: partially converted to the crystalline anhydrous form
[2]; storage 25° C./97% RH, Week 1
  KF (%): 7.7%
  XRPD: Dihydrate
[2]; storage 25° C./97% RH, Week 2
  KF (%): 7.7%
  XRPD: Dihydrate
[2]; storage 25° C./97% RH, Week 3
  KF (%): 7.4%
  XRPD: Dihydrate
[2]; storage 25° C./97% RH, Week 4
  KF (%): 7.7%
  XRPD: Dihydrate
[2]; storage 25° C./97% RH, Week 4, listed as crystalline dihydrate form (having average crystal sizes of about 1 mm)
  XRPD: remained stable and unchanged
[2]; storage 40° C./0% RH, Week 1
  KF (%): 0.8%
[2]; storage 40° C./0% RH, Week 2
  KF (%): 0.3%
[2]; storage 40° C./0% RH, Week 3
  KF (%): 0.1%
  XRPD: Anhydrous
[2]; storage 40° C./0% RH, Week 4
  KF (%): 0.2%
[2]; [9]
  KF (%): 0.2%
  XRPD: partially converted to the crystalline anhydrous form
[2]; storage 40° C./75% RH, Week 1
  KF (%): 7.7%
  XRPD: Dihydrate
[2]; storage 40° C./75% RH, Week 2
  KF (%): 7.6%
  XRPD: Dihydrate
[2]; storage 40° C./75% RH, Week 3
  KF (%): 7.7%
  XRPD: Dihydrate
[2]; storage 40° C./75% RH, Week 4
  KF (%): 7.7%
  XRPD: Dihydrate
[2]; storage 40° C./75% RH, Week 4, listed as crystalline dihydrate form (having average crystal sizes of about 1 mm)
  XRPD: remained stable and unchanged

## Cc1nc(-c2cnc(NC(C)C)n(C)c2=O)ccc1Oc1ccnc(-c2cnn(C)c2)c1.O.O [Dihydrate form of the compound represented by Formula (I) (h] [listing 2 of 2 here]
[2]; storage 25° C./0% RH, Week 1
  KF (%): 7.5%
[2]; storage 25° C./0% RH, Week 2
  KF (%): 7.7%
[2]; storage 25° C./0% RH, Week 3
  KF (%): 8.1%
[2]; storage 25° C./0% RH, Week 4
  KF (%): 7.9%
  XRPD: Dihydrate
[2]; storage 25° C./97% RH, Week 1
  KF (%): 7.6%
[2]; storage 25° C./97% RH, Week 2
  KF (%): 7.5%
[2]; storage 25° C./97% RH, Week 3
  KF (%): 7.9%
[2]; storage 25° C./97% RH, Week 4
  KF (%): 7.9%
[2]; storage 40° C./0% RH, Week 1
  KF (%): 7.5%
  XRPD: Pattern 4
[2]; storage 40° C./0% RH, Week 1, listed as crystalline dihydrate form (having crystal sizes in the range of about 10-50 μm)
  XRPD: Pattern 4
[2]; storage 40° C./0% RH, Week 2
  KF (%): 7.4%
  XRPD: Pattern 4
[2]; storage 40° C./0% RH, Week 2, listed as crystalline dihydrate form (having crystal sizes in the range of about 10-50 μm)
  XRPD: Pattern 4
[2]; storage 40° C./0% RH, Week 3
  KF (%): 7.0%
[2]; storage 40° C./0% RH, Week 3, listed as crystalline dihydrate form (having crystal sizes in the range of about 10-50 μm)
  XRPD: Pattern 4 and peaks at 9.9° and 10.6°
[2]; storage 40° C./0% RH, Week 4
  KF (%): 3.4%
[2]; storage 40° C./0% RH, Week 4, listed as crystalline dihydrate form (having crystal sizes in the range of about 10-50 μm)
  XRPD: Pattern 4 and peaks at 9.9° and 10.6°
[2]; storage 40° C./75% RH, Week 1
  KF (%): 7.5%
[2]; storage 40° C./75% RH, Week 2
  KF (%): 7.9%
[2]; storage 40° C./75% RH, Week 3
  KF (%): 8.0%
[2]; storage 40° C./75% RH, Week 4
  KF (%): 7.9%

## Cc1nc(-c2cnc(NC(C)C)n(C)c2=O)ccc1Oc1ccnc(-c2cnn(C)c2)c1.O.O [Crystalline dihydrate form of the compound represented by Fo] [listing 2 of 2 here]
[4]; [7]
  Particle Size d10: 3.9 microns
  Particle Size d50: 8.5 microns
  Particle Size d90: 16.0 microns

## Cc1nc(-c2cnc(NC(C)C)n(C)c2=O)ccc1Oc1ccnc(-c2cnn(C)c2)c1.O.O [Lot 2]
[4]; [10]
  Particle Size d10: 2 microns
  Particle Size d50: 6 microns
  Particle Size d90: 11 microns
[5]; listed as 2
  D(10): 6 μm
  D(50): 18 μm
  D(90): 37 μm

## Cc1nc(-c2cnc(NC(C)C)n(C)c2=O)ccc1Oc1ccnc(-c2cnn(C)c2)c1.O.O [milled seeds]
[4]
  particle size d10 of seeds: about 3 μm
  particle size d50 of seeds: about 6 μm
  particle size d90 of seeds: about 12 μm

## Cc1nc(-c2cnc(NC(C)C)n(C)c2=O)ccc1Oc1ccnc(-c2cnn(C)c2)c1.O.O [crystalline dihydrate form ground in a mortar and pestle]
[2]; storage 40° C./0% RH, Week 1
  XRPD: Pattern 4 and the crystalline anhydrous form were observed

## Cc1nc(-c2cnc(NC(C)C)n(C)c2=O)ccc1Oc1ccnc(-c2cnn(C)c2)c1
[2]; storage 25° C./0% RH, Week 1
  KF (%): 0.1%
  XRPD: Anhydrous
[2]; storage 25° C./0% RH, Week 2
  KF (%): 0.1%
  XRPD: Anhydrous
[2]; storage 25° C./0% RH, Week 3
  KF (%): 0.0%
  XRPD: Anhydrous
[2]; storage 25° C./0% RH, Week 4
  KF (%): 0.2%
  XRPD: Anhydrous
[2]; storage 25° C./97% RH, Week 1
  KF (%): 0.3%
  XRPD: Anhydrous
[2]; storage 25° C./97% RH, Week 2
  KF (%): 0.3%
  XRPD: Anhydrous
[2]; storage 25° C./97% RH, Week 3
  KF (%): 0.2%
  XRPD: Anhydrous
[2]; storage 25° C./97% RH, Week 4
  KF (%): 0.4%
  XRPD: Anhydrous
[2]; storage 40° C./0% RH, Week 1
  KF (%): 0.1%
  XRPD: Anhydrous
[2]; storage 40° C./0% RH, Week 2
  KF (%): 0.0%
  XRPD: Anhydrous
[2]; storage 40° C./0% RH, Week 3
  KF (%): 0.0%
  XRPD: Anhydrous
[2]; storage 40° C./0% RH, Week 4
  KF (%): 0.2%
  XRPD: Anhydrous
[2]; storage 40° C./75% RH, Week 1
  KF (%): 0.3%
  XRPD: Anhydrous
[2]; storage 40° C./75% RH, Week 2
  KF (%): 0.2%
  XRPD: Anhydrous
[2]; storage 40° C./75% RH, Week 3
  KF (%): 0.1%
  XRPD: Anhydrous
[2]; storage 40° C./75% RH, Week 4
  KF (%): 0.3%
  XRPD: Anhydrous

## Cc1nc(-c2cnc(NC(C)C)n(C)c2=O)ccc1Oc1ccnc(-c2cnn(C)c2)c1.O.O [Lot 1]
[4]; [11]
  Particle Size d10: 2 microns
  Particle Size d50: 5 microns
  Particle Size d90: 13 microns
[5]; listed as 1
  D(10): 9 μm
  D(50): 29 μm
  D(90): 59 μm

## Cc1nc(-c2cnc(NC(C)C)n(C)c2=O)ccc1Oc1ccnc(-c2cnn(C)c2)c1.O.O [non-milled batch of crystalline dihydrate form of the compou]
[4]
  particle size d10 of seeds: about 5 μm
  particle size d50 of seeds: about 15 μm
  particle size d90 of seeds: about 36 μm

## Cc1nc(-c2cnc(NC(C)C)n(C)c2=O)ccc1Oc1ccnc(-c2cnn(C)c2)c1.O.O [Seed batch]
[4]; [7]
  Particle Size d10: 1.4 microns
  Particle Size d50: 2.7 microns
  Particle Size d90: 5.0 microns
[4]; [12]
  particle size d10 of seeds: about 1 μm
  particle size d50 of seeds: about 3 μm
  particle size d90 of seeds: about 5 μm

## Cc1nc(-c2cnc(NC(C)C)n(C)c2=O)ccc1Oc1ccnc(-c2cnn(C)c2)c1 [vimseltinib]
[4]; [13]
  Particle Size d10: about 4 μm
  Particle Size d50: about 8 μm
  Particle Size d90: about 16 μm
[4]; [14]
  Particle Size d10: 6-8 μm
  Particle Size d50: 16-22 μm
  Particle Size d90: 33-40 μm
